The values that follow come from patent US8329706B2, “Oxazolidinone derivatives” (Actelion Pharmaceuticals Ltd., priority 2009, dated 2012).

One may read the IC50 as the concentration that gives 50% inhibition.

One experiment addresses T1, human orexin-2 receptor (Homo sapiens, UniProt O43614).
T1 construct: expressed in transfected cells; host or cells: CHO cells (G418 selection)
T1 sequence (O43614 1-444): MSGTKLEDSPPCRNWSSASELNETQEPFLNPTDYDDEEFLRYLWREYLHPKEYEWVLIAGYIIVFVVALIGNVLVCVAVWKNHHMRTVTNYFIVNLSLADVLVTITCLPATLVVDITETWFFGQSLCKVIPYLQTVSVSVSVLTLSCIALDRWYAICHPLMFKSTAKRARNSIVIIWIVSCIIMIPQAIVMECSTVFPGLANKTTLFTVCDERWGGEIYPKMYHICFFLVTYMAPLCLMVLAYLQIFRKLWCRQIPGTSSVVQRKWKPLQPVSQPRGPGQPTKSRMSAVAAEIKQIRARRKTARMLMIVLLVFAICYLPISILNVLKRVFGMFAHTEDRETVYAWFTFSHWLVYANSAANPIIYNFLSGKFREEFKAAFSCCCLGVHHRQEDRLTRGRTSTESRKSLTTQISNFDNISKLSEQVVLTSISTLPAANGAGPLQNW
As to the kind of experiment: FLIPR intracellular calcium assay, orexin receptor antagonistic activity (OX2). Type of experiment: cell-based. Conditions: CHO cells expressing human orexin-2 receptor; agonist 3 nM orexin-A; normalized to on-plate reference; * geomean n = 5, *2 geomean n = 2. As for the experimental part:
(§1) The orexin receptor antagonistic activity of the compounds of formula (I) is determined in accordance with the following experimental method.
(§2) Chinese hamster ovary (CHO) cells expressing the human orexin-1 receptor and the human orexin-2 receptor, respectively, are grown in culture medium (Ham F-12 with L-Glutamine) containing 300 μg/ml G418, 100 U/ml penicillin, 100 μg/ml streptomycin and 10% heat inactivated fetal calf serum (FCS). The cells are seeded at 20′000 cells/well into 384-well black clear bottom sterile plates (Greiner). The seeded plates are incubated overnight at 37° C. in 5% CO2.
(§3) Human orexin-A as an agonist is prepared as 1 mM stock solution in MeOH:water (1:1), diluted in HBSS containing 0.1% bovine serum albumin (BSA), NaHCO3: 0.375 g/l and 20 mM HEPES for use in the assay at a final concentration of 3 nM.
(§4) Antagonists are prepared as 10 mM stock solution in DMSO, then diluted in 384-well plates using DMSO followed by a transfer of the dilutions into in HBSS containing 0.1% bovine serum albumin (BSA), NaHCO3: 0.375 g/l and 20 mM HEPES. On the day of the assay, 50 μl of staining buffer (HBSS containing 1% FCS, 20 mM HEPES, NaHCO3: 0.375 g/l, 5 mM probenecid (Sigma) and 3 μM of the fluorescent calcium indicator fluo-4 AM (1 mM stock solution in DMSO, containing 10% pluronic) is added to each well. The 384-well cell-plates are incubated for 50 min at 37° C. in 5% CO2 followed by equilibration at rt for 30-120 min before measurement.
(§5) Within the Fluorescent Imaging Plate Reader (FLIPR Tetra, Molecular Devices), antagonists are added to the plate in a volume of 10 μl/well, incubated for 10 min and finally 10 μl/well of agonist is added. Fluorescence is measured for each well at 1 second intervals, and the height of each fluorescence peak is compared to the height of the fluorescence peak induced by 3 nM orexin-A with vehicle in place of antagonist. For each antagonist, the IC50 value (the concentration of compound needed to inhibit 50% of the agonistic response) is determined and normalized using the obtained IC50 value of a on-plate reference compound. Optimized conditions were achieved by adjustment of pipetting speed and cell splitting regime. The calculated IC50 values of the compounds may fluctuate depending on the daily cellular assay performance. Fluctuations of this kind are known to those skilled in the art.
A general note: Calcium assays in cells follow changes in intracellular calcium, usually with a dye or a luminescent sensor.

Another experiment addresses T2, human orexin-1 receptor (Homo sapiens, UniProt O43613).
T2 construct: expressed in transfected cells; host or cells: CHO cells (G418 selection)
T2 sequence (O43613 1-425): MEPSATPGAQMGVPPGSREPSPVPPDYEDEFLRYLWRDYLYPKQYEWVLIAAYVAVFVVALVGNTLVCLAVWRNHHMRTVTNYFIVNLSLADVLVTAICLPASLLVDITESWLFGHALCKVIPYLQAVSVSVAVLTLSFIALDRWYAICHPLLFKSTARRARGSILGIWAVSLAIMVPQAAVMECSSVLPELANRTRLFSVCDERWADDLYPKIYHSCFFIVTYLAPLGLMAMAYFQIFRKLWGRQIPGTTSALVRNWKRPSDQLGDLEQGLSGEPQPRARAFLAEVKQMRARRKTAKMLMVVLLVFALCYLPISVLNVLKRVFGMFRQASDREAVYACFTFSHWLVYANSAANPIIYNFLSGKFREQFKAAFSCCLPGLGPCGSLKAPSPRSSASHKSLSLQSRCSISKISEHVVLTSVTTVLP
As to the kind of experiment: FLIPR intracellular calcium assay, orexin receptor antagonistic activity (OX1). Type of experiment: cell-based. Conditions: CHO cells expressing human orexin-1 receptor; agonist 3 nM orexin-A; normalized to on-plate reference; * geomean n = 5, *2 geomean n = 2. As for the experimental part: as §1, §2, §3, §4, §5

As to `CCOc1ccccc1C1OCC(=O)N1Cc1ccc(OC)cc1` (stereo not shown) [Example 27, 2-(2-Ethoxy-phenyl)-3-(4-methoxy-benzyl)-oxazolidin-4-one], the results for the IC50 on human orexin-2 receptor and at human orexin-1 receptor were 0.353 µM and more than 10 µM, respectively.
The like results for `CCOc1ccccc1C1OCC(=O)N1Cc1cc(C)ccc1C(F)(F)F` (stereo not shown) [Example 28, 2-(2-Ethoxy-phenyl)-3-(5-methyl-2-trifluoromethyl-benzyl)-oxazolidin-4-one] were, in that order, 0.661 µM and 8.02 µM.
In the same order, the values of `CCOc1ccccc1C1OCC(=O)N1Cc1ccc(Cl)c(Cl)c1` (stereo not shown) [Example 29, 3-(3,4-Dichloro-benzyl)-2-(2-ethoxy-phenyl)-oxazolidin-4-one] are 0.696 µM and more than 10 µM.
The like results for `CCOc1ccccc1C1OCC(=O)N1Cc1ccc(Cl)cc1Cl` (stereo not shown) [Example 30, 3-(2,4-Dichloro-benzyl)-2-(2-ethoxy-phenyl)-oxazolidin-4-one] were, in that order, 0.844 µM and 3.05 µM.
Turning to `CCOc1ccccc1C1OCC(=O)N1Cc1ccc(C)c(Cl)c1` (stereo not shown) [Example 31, 3-(3-Chloro-4-methyl-benzyl)-2-(2-ethoxy-phenyl)-oxazolidin-4-one], the IC50 at human orexin-2 receptor amounted to 0.634 µM; at human orexin-1 receptor it was 7.6 µM.
The like results for `COc1cccc(OC)c1C1OCC(=O)N1Cc1ccc(C(F)(F)F)cc1` (stereo not shown) [Example 32, 2-(2,6-Dimethoxy-phenyl)-3-(4-trifluoromethyl-benzyl)-oxazolidin-4-one] were, in that order, 0.413 µM and more than 10 µM.
In the same order, the values of `COc1cccc(OC)c1C1OCC(=O)N1Cc1ccccc1OC(F)(F)F` (stereo not shown) [Example 33, 2-(2,6-Dimethoxy-phenyl)-3-(2-trifluoromethoxy-benzyl)-oxazolidin-4-one] are 0.225 µM and more than 10 µM.
The like results for `COc1cccc(OC)c1C1OCC(=O)N1Cc1ccc(OC(F)(F)F)cc1` (stereo not shown) [Example 34, 2-(2,6-Dimethoxy-phenyl)-3-(4-trifluoromethoxy-benzyl)-oxazolidin-4-one] were, in that order, 0.298 µM and 6.47 µM.
Take `COc1cccc(OC)c1C1OCC(=O)N1Cc1cccc(OC(F)(F)F)c1` (stereo not shown) [Example 35, 2-(2,6-Dimethoxy-phenyl)-3-(3-trifluoromethoxy-benzyl)-oxazolidin-4-one]: the figures for the IC50 on human orexin-2 receptor and at human orexin-1 receptor were 0.618 µM and 2.89 µM, respectively.
For `COc1cccc(OC)c1C1OCC(=O)N1Cc1ccc(F)c(Cl)c1` (stereo not shown) [Example 36, 3-(3-Chloro-4-fluoro-benzyl)-2-(2,6-dimethoxy-phenyl)-oxazolidin-4-one], the IC50 at human orexin-2 receptor was determined as 0.632 µM; on human orexin-1 receptor, 1.34 µM.
The like results for `COc1cccc(OC)c1C1OCC(=O)N1Cc1cc(C(F)(F)F)cc(Cl)c1F` (stereo not shown) [Example 37, 3-(3-Chloro-2-fluoro-5-trifluoromethyl-benzyl)-2-(2,6-dimethoxy-phenyl)-oxazolidin-4-one] were, in that order, 0.477 µM and 0.162 µM.
In the same order, the values of `COc1cccc(OC)c1C1OCC(=O)N1Cc1ccc(F)c(C(F)(F)F)c1` (stereo not shown) [Example 38, 2-(2,6-Dimethoxy-phenyl)-3-(4-fluoro-3-trifluoromethyl-benzyl)-oxazolidin-4-one] are 0.73 µM and 1.38 µM.
The like results for `COc1cccc(OC)c1C1OCC(=O)N1Cc1ccc(Cl)c(F)c1` (stereo not shown) [Example 39, 3-(4-Chloro-3-fluoro-benzyl)-2-(2,6-dimethoxy-phenyl)-oxazolidin-4-one] were, in that order, 0.795 µM and 4.1 µM.
For `COc1cccc(OC)c1C1OCC(=O)N1Cc1ccc(OC(F)(F)F)c(Cl)c1` (stereo not shown) [Example 40, 3-(3-Chloro-4-trifluoromethoxy-benzyl)-2-(2,6-dimethoxy-phenyl)-oxazolidin-4-one], the IC50 at human orexin-2 receptor amounted to 0.029 µM; on human orexin-1 receptor, 0.198 µM.
The like results for `COc1cccc(OC)c1C1OCC(=O)N1Cc1c(C)cc(C)cc1C` (stereo not shown) [Example 41, 2-(2,6-Dimethoxy-phenyl)-3-(2,4,6-trimethyl-benzyl)-oxazolidin-4-one] were, in that order, 0.681 µM and 0.542 µM.
As for `COc1cccc(OC)c1C1OCC(=O)N1Cc1ccc(Cl)cc1Cl` (stereo not shown) [Example 42, 3-(2,4-Dichloro-benzyl)-2-(2,6-dimethoxy-phenyl)-oxazolidin-4-one], the IC50 at human orexin-2 receptor is 0.376 µM; at human orexin-1 receptor, 1.49 µM.
In the same order, the values of `COc1cccc(OC)c1C1OCC(=O)N1Cc1c(C)cccc1C` (stereo not shown) [Example 44, 2-(2,6-Dimethoxy-phenyl)-3-(2,6-dimethyl-benzyl)-oxazolidin-4-one] are 0.467 µM and 1.76 µM.
Turning to `CCOc1ccccc1C1OCC(=O)N1Cc1ccccc1Cl` (stereo not shown) [Example 45, 3-(2-Chloro-benzyl)-2-(2-ethoxy-phenyl)-oxazolidin-4-one], the IC50 at human orexin-2 receptor came out at 0.87 µM; at human orexin-1 receptor, 1.74 µM.
The like results for `CCOc1ccccc1C1OCC(=O)N1Cc1cc(Cl)ccc1Cl` (stereo not shown) [Example 46, 3-(2,5-Dichloro-benzyl)-2-(2-ethoxy-phenyl)-oxazolidin-4-one] were, in that order, 1.52 µM and 0.788 µM.
The like results for `COc1cccc(OC)c1C1OCC(=O)N1Cc1ccc(Oc2ccccc2)cc1` (stereo not shown) [Example 47, 2-(2,6-Dimethoxy-phenyl)-3-(4-phenoxy-benzyl)-oxazolidin-4-one] were, in that order, 0.068 µM and 1.18 µM.
The like results for `COc1cccc(OC)c1C1OCC(=O)N1Cc1ccc(OC(F)(F)F)c(F)c1` (stereo not shown) [Example 48, 2-(2,6-Dimethoxy-phenyl)-3-(3-fluoro-4-trifluoromethoxy-benzyl)-oxazolidin-4-one] were, in that order, 0.099 µM and 1.35 µM.
On to `COc1cccc(OC)c1C1OCC(=O)N1Cc1ccc(OC(F)F)cc1` (stereo not shown) [Example 49, 3-(4-Difluoromethoxy-benzyl)-2-(2,6-dimethoxy-phenyl)-oxazolidin-4-one], for which the IC50 came to 0.113 µM on human orexin-2 receptor and 2.99 µM at human orexin-1 receptor.
`COc1cccc(OC)c1C1OC(C)(C)C(=O)N1Cc1ccc(Oc2ccccc2)cc1` (stereo not shown) [Example 50, 2-(2,6-Dimethoxy-phenyl)-5,5-dimethyl-3-(4-phenoxy-benzyl)-oxazolidin-4-one]: the IC50 at human orexin-2 receptor came out at 0.058 µM; at human orexin-1 receptor, 0.028 µM.
The like results for `COc1cccc(OC)c1C1O[C@H](C)C(=O)N1Cc1ccc(Oc2ccccc2)cc1` (stereo partly drawn) [Example 51, 2-(2,6-Dimethoxy-phenyl)-(R)-5-methyl-3-(4-phenoxy-benzyl)-oxazolidin-4-one] were, in that order, 0.025 µM and 0.22 µM.
Regarding `COc1cccc(OC)c1C1O[C@H](C)C(=O)N1Cc1ccc(OC(F)F)cc1` (stereo partly drawn) [Example 52, 3-(4-Difluoromethoxy-benzyl)-2-(2,6-dimethoxy-phenyl)-(R)-5-methyl-oxazolidin-4-one], the IC50 at human orexin-2 receptor amounted to 0.041 µM; on human orexin-1 receptor it was 0.726 µM.
In the same order, the values of `COc1cccc(OC)c1C1O[C@H](C)C(=O)N1Cc1ccc2ccccc2c1` (stereo partly drawn) [Example 53, 2-(2,6-Dimethoxy-phenyl)-(R)-5-methyl-3-naphthalen-2-ylmethyl-oxazolidin-4-one] are 0.065 µM and 0.047 µM.
